The series can be described thus: MTT cell viability assay, compounds at 5, 1 and 0.2 μM, 48 hours. The format is cell-based. Conditions: human, A549 tumor cells. The method in brief:
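A549 cells were seeded at 2500/well in DMEM + 10% FBS, grown overnight, then exposed to compound for 48 h. Viability was read by MTT (5 mg/ml, 4 h), with formazan dissolved in DMSO and absorbance measured at 560/570 nm to give survival rate.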
In general terms: Tetrazolium dyes change colour on reduction, which living cells bring about.

As a reminder, the viability is a per cent measure of how many cells are alive, often set against a control. Higher therefore signals less harm to the cells. `COc1ccc2c(Oc3cccc(-c4nnc(Nc5cccc(C(F)(F)F)c5)[nH]4)c3)ncnc2c1` [Compound 87]: the viability at 48 h, 0.2 µM was more than 70%; the viability at 48 h, 1 µM was more than 70%; the viability at 48 h, 5 µM is more than 70%.

`COc1nccc(Oc2cccc(-c3nnc(Nc4cccc(C(F)(F)F)c4)[nH]3)c2)n1` [Compound 88] displayed a viability at 48 h, 0.2 µM of more than 70%; a viability at 48 h, 1 µM of more than 70%; a viability at 48 h, 5 µM of more than 70%.

`COc1nc(N)cc(Oc2cccc(-c3nnc(Nc4cccc(C(F)(F)F)c4)[nH]3)c2)n1` [Compound 89] gave a viability at 48 h, 0.2 µM of more than 70%; a viability at 48 h, 1 µM of more than 70%; a viability at 48 h, 5 µM of more than 70%.

As to `COc1cc(Oc2cccc(-c3nnc(Nc4cccc(C(F)(F)F)c4)[nH]3)c2)ccn1` [Compound 90], the viability at 48 h, 0.2 µM is more than 70%; the viability at 48 h, 1 µM is more than 70%; the viability at 48 h, 5 µM is more than 70%.

On to `Cc1cc(Oc2cccc(-c3nnc(Nc4cccc(C(F)(F)F)c4)[nH]3)c2)ccn1` [Compound 91], for which the viability at 48 h, 0.2 µM is more than 70%; the viability at 48 h, 1 µM is more than 70%; the viability at 48 h, 5 µM lay within 50 to 70%.

Consider `COc1nc(Oc2cccc(-c3nnc(Nc4cccc(C(F)(F)F)c4)[nH]3)c2)c2cc[nH]c2n1` [Compound 92], for which the viability at 48 h, 0.2 µM was more than 70%; the viability at 48 h, 1 µM is more than 70%; the viability at 48 h, 5 µM is more than 70%.

With `COc1cc(Oc2cccc(-c3nnc(Nc4cccc(C(F)(F)F)c4)[nH]3)c2)ncn1` [Compound 93], the viability at 48 h, 0.2 µM was more than 70%; the viability at 48 h, 1 µM was more than 70%; the viability at 48 h, 5 µM was in the range of 50 to 70%.

Take `CCc1cc(Oc2cccc(-c3nnc(Nc4cccc(C(F)(F)F)c4)[nH]3)c2)nc(N)n1` [Compound 94]: the viability at 48 h, 0.2 µM is more than 70%; the viability at 48 h, 1 µM was more than 70%; the viability at 48 h, 5 µM was 50 to 70%.

With `COCCOc1nc(N)cc(Oc2cccc(-c3nnc(Nc4cccc(C(F)(F)F)c4)[nH]3)c2)n1` [Compound 96], the viability at 48 h, 0.2 µM was more than 70%; the viability at 48 h, 1 µM was more than 70%; the viability at 48 h, 5 µM was more than 70%.

Consider `CCOc1nc(N)cc(Oc2cccc(-c3nnc(Nc4cccc(C(F)(F)F)c4)[nH]3)c2)n1` [Compound 97], for which the viability at 48 h, 0.2 µM is more than 70%; the viability at 48 h, 1 µM was more than 70%; the viability at 48 h, 5 µM is more than 70%.

Turning to `CC(C)(C)Sc1nc(N)cc(Oc2cccc(-c3nnc(Nc4cccc(C(F)(F)F)c4)[nH]3)c2)n1` [Compound 98], the viability at 48 h, 0.2 µM is more than 70%; the viability at 48 h, 1 µM was more than 70%; the viability at 48 h, 5 µM was more than 70%.

In the case of `CCc1nc(N)cc(Oc2cccc(-c3nnc(Nc4cccc(C(F)(F)F)c4)[nH]3)c2)n1` [Compound 99], the viability at 48 h, 0.2 µM is more than 70%; the viability at 48 h, 1 µM is more than 70%; the viability at 48 h, 5 µM lay in the range of 50 to 70%.

Take `Cc1nc(N)cc(Oc2cccc(-c3nnc(Nc4cccc(C(F)(F)F)c4)[nH]3)c2)n1` [Compound 100]: the viability at 48 h, 0.2 µM is more than 70%; the viability at 48 h, 1 µM is more than 70%; the viability at 48 h, 5 µM was more than 70%.

`FC(F)(F)c1cccc(Nc2nnc(-c3cccc(Oc4cncnc4)c3)[nH]2)c1` [Compound 101] displayed a viability at 48 h, 0.2 µM of more than 70%; a viability at 48 h, 1 µM of more than 70%; a viability at 48 h, 5 µM of more than 70%.

The molecule `CSc1nc(N)cc(Oc2ccc(-c3nnc(Nc4cccc(C(F)(F)F)c4)[nH]3)cc2C)n1` [Compound 102] had a viability at 48 h, 0.2 µM of more than 70%; a viability at 48 h, 1 µM of more than 70%; a viability at 48 h, 5 µM of more than 70%.

For the molecule `FC(F)(F)c1cccc(Nc2nnc(-c3ccc(Oc4ccncc4)c(Cl)c3)[nH]2)c1` [Compound 103], the viability at 48 h, 0.2 µM was more than 70%; the viability at 48 h, 1 µM was more than 70%; the viability at 48 h, 5 µM lay in the range of 50 to 70%.

`CSc1nc(N)cc(Oc2ccc(-c3nnc(Nc4cccc(C(F)(F)F)c4)[nH]3)cc2Cl)n1` [Compound 104]: the viability at 48 h, 0.2 µM was more than 70%; the viability at 48 h, 1 µM is more than 70%; the viability at 48 h, 5 µM was less than 50%.

Take `CSc1nc(N)cc(Oc2ccc(-c3nnc(Nc4ccc(F)c(C(F)(F)F)c4)[nH]3)cc2)n1` [Compound 105]: the viability at 48 h, 0.2 µM is more than 70%; the viability at 48 h, 1 µM is more than 70%; the viability at 48 h, 5 µM was less than 50%.

`CSc1nc(N)cc(Oc2cccc(-c3nnc(Nc4ccc(F)c(C(F)(F)F)c4)[nH]3)c2)n1` [Compound 106] showed a viability at 48 h, 0.2 µM of more than 70%; a viability at 48 h, 1 µM of more than 70%; a viability at 48 h, 5 µM of more than 70%.

As for `CSc1nc(N)cc(Oc2ccc(-c3nnc(Nc4cccc(C(F)(F)F)c4)[nH]3)c(F)c2)n1` [Compound 107], the viability at 48 h, 0.2 µM was more than 70%; the viability at 48 h, 1 µM was more than 70%; the viability at 48 h, 5 µM was in the range of 50 to 70%.

The molecule `COc1cc(-c2nnc(Nc3cccc(C(F)(F)F)c3)[nH]2)ccc1Oc1ccncc1` [Compound 108] displayed a viability at 48 h, 0.2 µM of more than 70%; a viability at 48 h, 1 µM of more than 70%; a viability at 48 h, 5 µM of less than 50%.

For `COc1cc(-c2nnc(Nc3cccc(C(F)(F)F)c3)[nH]2)ccc1Oc1cc(N)nc(SC)n1` [Compound 109], the viability at 48 h, 0.2 µM is more than 70%; the viability at 48 h, 1 µM is more than 70%; the viability at 48 h, 5 µM was less than 50%.

`CSc1nc(N)cc(Oc2c(C)cc(-c3nnc(Nc4cccc(C(F)(F)F)c4)[nH]3)cc2C)n1` [Compound 110] came in with a viability at 48 h, 0.2 µM of more than 70%; a viability at 48 h, 1 µM of more than 70%; a viability at 48 h, 5 µM of more than 70%.

`FC(F)(F)c1cccc(Nc2nnc(-c3ccc(Oc4ccncc4)cc3Cl)[nH]2)c1` [Compound 111] had a viability at 48 h, 0.2 µM of more than 70%; a viability at 48 h, 1 µM of more than 70%; a viability at 48 h, 5 µM of more than 70%.

`CSc1nc(N)cc(Oc2ccc(-c3nnc(Nc4cccc(C(F)(F)F)c4)[nH]3)c(Cl)c2)n1` [Compound 112]: the viability at 48 h, 0.2 µM is more than 70%; the viability at 48 h, 1 µM was more than 70%; the viability at 48 h, 5 µM was more than 70%.

As for `COCCOCCSc1nc(N)cc(Oc2ccc(-c3nnc(Nc4cccc(C(F)(F)F)c4)[nH]3)cc2)n1` [Compound 113], the viability at 48 h, 0.2 µM was more than 70% and the viability at 48 h, 1 µM was more than 70%.

Consider `CC(=O)NCCSc1nc(N)cc(Oc2ccc(-c3nnc(Nc4cccc(C(F)(F)F)c4)[nH]3)cc2)n1` [Compound 114], for which the viability at 48 h, 0.2 µM was more than 70%; the viability at 48 h, 1 µM was more than 70%; the viability at 48 h, 5 µM is more than 70%.

With `Nc1cc(Oc2ccc(-c3nnc(Nc4cccc(C(F)(F)F)c4)[nH]3)cc2)nc(SCCO)n1` [Compound 115], the viability at 48 h, 0.2 µM is more than 70%; the viability at 48 h, 1 µM is more than 70%; the viability at 48 h, 5 µM is more than 70%.

Turning to `Nc1cc(Oc2ccc(-c3nnc(Nc4cccc(C(F)(F)F)c4)[nH]3)cc2)nc(SCC(=O)O)n1` [Compound 116], the viability at 48 h, 0.2 µM was more than 70%; the viability at 48 h, 1 µM was more than 70%; the viability at 48 h, 5 µM is more than 70%.

Regarding `CNC(=O)CSc1nc(N)cc(Oc2ccc(-c3nnc(Nc4cccc(C(F)(F)F)c4)[nH]3)cc2)n1` [Compound 117], the viability at 48 h, 0.2 µM is more than 70%; the viability at 48 h, 1 µM was more than 70%; the viability at 48 h, 5 µM is more than 70%.

On to `CNc1cc(Oc2ccc(-c3nnc(Nc4cccc(C(F)(F)F)c4)[nH]3)cc2)nc(SC)n1` [Compound 118], for which the viability at 48 h, 0.2 µM is more than 70%; the viability at 48 h, 1 µM is more than 70%; the viability at 48 h, 5 µM is more than 70%.

On to `CSc1nc(N)cc(Sc2ccc(-c3nnc(Nc4cccc(C(F)(F)F)c4)[nH]3)cc2)n1` [Compound 119], for which the viability at 48 h, 0.2 µM is more than 70%; the viability at 48 h, 1 µM is less than 50%; the viability at 48 h, 5 µM was less than 50%.

`CSc1nc(N)cc(Oc2ccc(-c3nnc(Nc4cc(C(F)(F)F)cc(C(F)(F)F)c4)[nH]3)cc2)n1` [Compound 120] returned a viability at 48 h, 0.2 µM of more than 70%; a viability at 48 h, 1 µM of more than 70%; a viability at 48 h, 5 µM of more than 70%.

The molecule `CSc1nc(N)cc(Oc2ccc(-c3nnc(Nc4cc(C)ccc4F)[nH]3)cc2)n1` [Compound 121] came in with a viability at 48 h, 0.2 µM of more than 70%; a viability at 48 h, 1 µM of 50 to 70%; a viability at 48 h, 5 µM of less than 50%.

The molecule `CCc1cccc(Nc2nnc(-c3ccc(Oc4cc(N)nc(SC)n4)cc3)[nH]2)c1` [Compound 122] gave a viability at 48 h, 0.2 µM of more than 70%; a viability at 48 h, 1 µM of more than 70%; a viability at 48 h, 5 µM of less than 50%.

With `CSc1nc(N)cc(Oc2ccc(-c3nnc(Nc4cc(C)cc(C)c4)[nH]3)cc2)n1` [Compound 123], the viability at 48 h, 0.2 µM was less than 50%; the viability at 48 h, 1 µM was less than 50%; the viability at 48 h, 5 µM is less than 50%.

As for `CSc1nc(N)cc(Oc2ccc(-c3nnc(Nc4ccc5c(c4)CCC5)[nH]3)cc2)n1` [Compound 124], the viability at 48 h, 0.2 µM was more than 70%; the viability at 48 h, 1 µM is more than 70%; the viability at 48 h, 5 µM is less than 50%.

For the molecule `CSc1nc(N)cc(Oc2ccc(-c3nnc(Nc4ccc(C)c(C)c4)[nH]3)cc2)n1` [Compound 125], the viability at 48 h, 0.2 µM is more than 70%; the viability at 48 h, 1 µM is more than 70%; the viability at 48 h, 5 µM was less than 50%.

The molecule `CSc1nc(N)cc(Oc2ccc(-c3nnc(Nc4cccc(C)c4C)[nH]3)cc2)n1` [Compound 126] yielded a viability at 48 h, 0.2 µM of less than 50%; a viability at 48 h, 1 µM of less than 50%; a viability at 48 h, 5 µM of less than 50%.

The molecule `CSc1nc(N)cc(Oc2ccc(-c3nnc(Nc4ccc(C#N)cc4)[nH]3)cc2)n1` [Compound 127] came in with a viability at 48 h, 0.2 µM of more than 70%; a viability at 48 h, 1 µM of more than 70%; a viability at 48 h, 5 µM of 50 to 70%.

The values above are taken from patent US9212151B2, “Heterocyclic compounds useful for kinase inhibition” (Amitech Therapeutic Solutions, Inc., priority 2010, dated 2015).
